Several values for one entry are separate records, joined by “and”; a condition that tells them apart may be missing. Equal entries are not always repeated.
Key:
[1] = tested on: humanized PXR-CAR-CYP3A4/3A7 mice fed HCD; experiment: High-cholesterol diet (HCD) study: weights, plasma biochemistry; type: in vivo, mouse; conditions: for ALP / ALT / AST / Albumin / Bilirubin / Fe / UA / Urea / LDH / BW (Fig. 4g) / Chol (Fig. 4h) / Glu (Fig. 4h) / HDL (Fig. 4h) / LDL (Fig. 4h) / LW (Fig. 4g) / LW/BW (Fig. 4g) / TG (Fig. 4h): individual animals
Procedure: For experiments with a high-cholesterol diet (HCD), mice (18–26 weeks) were pretreated ad libitum for 2 weeks with diet containing 15% fat and 12.5 g/kg of cholesterol (E15103, ssniff, Soest, Germany) (Fig. 4f). After this period, animals were randomly assigned to two groups (control vehicle-treated and MI-883-treated animals, with 9 males and 7 females per group). Animals were dosed orally with MI-883 (5 mg/kg every other day—Monday, Wednesday, Friday, and the following Monday and Wednesday, for a total of 5 doses) or vehicle alone (5% DMSO/5% PEG300/90% corn oil) via oral gavage three times per week. The animals remained on the HCD during the treatment period. Mice were sacrificed after 5 treatments.
Mice were weighted and tissues (livers, blood, duodenum, jejunum, ileum, white fat) were removed, weighted and snap frozen in liquid nitrogen and stored at –80 °C until analysis. Blood was collected from the retro-orbital sinus of mice under isoflurane anesthesia into heparin-coated tubes (Kabe Laboratortechnik GmbH, Nümbrecht-Elsenroth, Germany) after 3 h fasting and analyzed on AU480 biochemistry analyzer (Beckman Coulter, Brea, USA). Sample preparation for bile acid and cholesterol analyses from tissues or feces is described below. One of the liver lobes was fixed in formalin, embedded in paraffin blocks, sectioned, and subjected to H&E staining. Blood was analyzed as described in Supplementary, Chapter 10.
Blood was collected from the retro-orbital sinus of mice under isoflurane anesthesia into heparin-coated tubes (Kabe Laboratortechnik GmbH, Nümbrecht-Elsenroth, Germany) after 3 hours of fasting. Blood was left for 10 minutes at room temperature, and then kept on ice until centrifugation (5,000 g at 4°C for 10 minutes). The collected plasma was stored at -80 °C until measurement. Lipoprotein levels and other plasmatic parameters were measured on an AU480 biochemistry analyzer (Beckman Coulter, Brea, USA).

[2] = tested on: humanized PXR-CAR-CYP3A4/3A7 mice, liver; experiment: NGS RNA-Seq of liver samples (HFD study); type: in vivo, mouse
Procedure: Total RNA from liver samples has been isolated using TRIZOL®. Total RNA was purified using Agencourt RNAClean XP Beads (Beckman Coulter, Inc.) and then the diluted RNA was quantified using Qubit 2.0 Fluorometer with Qubit RNA BR Assay Kit (Invitrogen) for precise measurement. The integrity of purified RNA was evaluated based on RIN (>7) acquired using the 2100 Bioanalyzer System with Total RNA Nano Chip (Agilent Technologies) according to the manufacturer’s protocol.
The input amount of total RNA used in the libraries was 520 ng. Libraries were constructed with NEBNext Ultra II Directional RNA Library Prep Kit for Illumina (New England Biolabs Inc., Ipswich, MA, USA). […] The samples were multiplexed using suitable molecular barcodes by using the NEBNext Multiplex Oligos from Illumina. Adaptor enrichment was performed by using eight cycles of PCR.
The concentration of molecular libraries was measured using Qubit 2.0 Fluorometer with Qubit dsDNA HS Assay Kit (Invitrogen) and subsequently, the fragment sizes were analyzed by Bioanalyzer System 2100 using High Sensitivity DNA Chip (Agilent Technologies), with expected fragments between 200 and 600 bp in size. The molarity of individual libraries was calculated using determined concentrations and modal lengths. Each sample of the library was normalized to 14 nM concentration, and the normalized libraries were pooled and sequenced on an Illumina NovaSeq6000 platform (Illumina) with paired-end sequencing of libraries with a read length of 150 b.
The quality of raw sequencing data was assessed using MultiQC tool. Fastq files were aligned to the mouse reference genome (mm10) using STAR aligner and featureCounts was used to make count matrices. Data was filtered to only include genes with a minimum 60 counts in all samples. Data were analyzed using the DESeq2 package of RStudio 2023.06.1 and R software v4.3.1 (https://www.R-project.org/). […] P values were adjusted for multiple testing to reduce false discovery rate. For further analysis RNAs with more than twofold expression were selected (log2FC > 1 or < –1). Differential expression was analyzed using DESeq2 package (Fig. 4a). Volcano plot was visualized using R package ggplot2 and ggrepel. Gene ontology (GO) and pathway analyses were done with the R package clusterProfiler[64] using function enrichGO. P value < 0.001 was defined as the significance threshold.
A heatmap was made using z-score normalized reads (z = [x-mean]/standard deviation) and visualized using the R package pheatmap. Hierarchical clustering was performed with the Ward method as a part of the pheatmap R package. The data presented in this publication have been deposited in NCBI’s Gene Expression Omnibus database with GEO Series accession number GSE262786.https://www.ncbi.nlm.nih.gov/geo/query/acc.cgi?acc=GSE262786.

[3] = tested on: LS174T cells (endogenous PXR); experiment: CYP3A4 mRNA RT-qPCR in LS174T cells
Excerpt: LS174T human colon adenocarcinoma cells (RRID:CVCL_1384) were used in induction experiments with the subsequent CYP3A4 mRNA RT-qPCR analysis as they express functional endogenous PXR.

mouse Car = mouse Car (Mus musculus, UniProt O35627); experiment: Luciferase reporter gene assay mouse Car, HepG2
Chain of mouse Car (O35627 whole entry): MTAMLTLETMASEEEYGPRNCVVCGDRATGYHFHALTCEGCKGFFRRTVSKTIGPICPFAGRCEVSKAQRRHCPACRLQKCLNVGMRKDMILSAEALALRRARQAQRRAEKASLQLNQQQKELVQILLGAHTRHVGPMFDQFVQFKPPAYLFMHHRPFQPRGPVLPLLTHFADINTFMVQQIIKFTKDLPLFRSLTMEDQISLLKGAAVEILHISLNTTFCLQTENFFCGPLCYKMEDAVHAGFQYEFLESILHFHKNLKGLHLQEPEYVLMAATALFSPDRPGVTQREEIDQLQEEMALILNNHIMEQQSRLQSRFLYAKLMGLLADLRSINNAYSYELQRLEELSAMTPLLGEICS
Excerpt: The luciferase reporter gene assays for FXR, LXRα, LXRβ, THα, GRα, PPARα, PPARδ/β, PPARγ, AhR, VD, ERα, ERβ and mouse Car are described in our recent paper[19]
The mouse Car expression vector pCMV6-mCar (NM_009803) was obtained from OriGene Technologies, Rockville, MD, USA).
Gal4-LBD constructs of tested nuclear receptors have been used together with pGL4.31[luc2P/GAL4UAS/Hygro] luciferase reporter construct and pRL-TK Renilla expression vector (both from Promega, Hercules, USA) in HepG2 cells transfected with Lipofectamine 2000 or 3000 reagents. For GRα and FXR receptors, full-length expression vectors have been used with pGRE-luc or pFXRE-luc luciferase constructs. For the aryl hydrocarbon receptor (AhR), p1A1-luc construct was used with only pRL-TK vector for transfection normalization. A dual reporter assay (Promega, Hercules, USA) was used to analyze both firefly and Renilla luciferase activities.
Gal4-LBD constructs of tested nuclear receptors have been used together with pGL5-luc luciferase reporter construct and pRL-TK Renilla expression vector in HepG2 cells transfected with Lipofectamine 2000 or 3000 reagents. For GRα and FXR receptors, full-length expression vectors have been used with pGRE-luc or pFXRE-luc luciferase constructs. For the aryl hydrocarbon receptor (AhR), p1A1-luc construct was used with only pRL-TK vector for transfection normalization. […] Bars represent means±S.D. (n=3).

[4] = first vehicle/MI-883 column pair
[5] = second vehicle/MI-883 column pair

NC(=O)c1cc(Cn2cc(-c3c(-c4ccc(Cl)cc4)nc4cc(F)ccn34)nn2)ccc1Cl [MI-883, 2-chloro-5-((4-(2-(4-chlorophenyl)-7-fluoroimidazo[1,2-a]pyridin-3-yl)-1H-1,2,3-triazol-1-yl)methyl)benzamide]
ALP ([1]; HCD female): 64 and 60 and 66 | ALT ([1]; HCD female): 52 and 44 and 50 and 65 and 53 and 31 and 37 | AST ([1]; HCD female): 97 and 85 and 59 and 60 and 100 and 48 | Albumin ([1]; HCD female): 29.13 and 29.02 and 28.37 and 27.41 and 25.72 and 27.39 and 28.99 | Bilirubin ([1]; HCD female): 1.92 and 2.23 and 1.15 and 0.79 and 1.09 and 1.2 | Fe ([1]; HCD female): 25.95 and 24.87 and 19.99 and 29.01 and 26.38 and 27.47 and 25.24 | UA ([1]; HCD female): 74.13 and 68.35 and 69.17 and 60.17 and 117.85 and 58.32 and 32.43 | Urea ([1]; HCD female): 5.81 and 6.85 and 7.72 and 6.07 and 8.19 and 6.12 and 7.88 | ALP ([1]; HCD male): 60 and 53 and 64 and 50 and 42 and 46 and 69 and 45 and 43 | ALT ([1]; HCD male): 335 and 154 and 210 and 103 and 48 and 36 and 40 and 194 and 61 | AST ([1]; HCD male): 202 and 190 and 151 and 98 and 62 and 43 and 71 and 125 and 88 | Albumin ([1]; HCD male): 25.95 and 26.89 and 26.71 and 27.24 and 27.46 and 26.93 and 28.1 and 27.95 and 27.85 | Bilirubin ([1]; HCD male): 1.82 and 2.96 and 1.74 and 3.02 and 2.04 and 3.59 and 1.89 and 1.94 | Fe ([1]; HCD male): 21.53 and 13.76 and 24.97 and 21.49 and 28.7 and 25.79 and 20.83 and 28.43 and 27.87 | UA ([1]; HCD male): 56.8 and 93.42 and 54.01 and 55.84 and 44.35 and 31.12 and 35.14 and 37.35 and 25.57 | Urea ([1]; HCD male): 7.34 and 6.71 and 7.14 and 5.73 and 5.13 and 5.97 and 6.54 and 7 | liver weight (LW) and LW/BW ([1]; HCD, p.o. 5 mg/kg, five doses every other day): not after five doses | LDH ([1]; HCD, (sex not given)): 1.47 and 1.15 and 1.63 and 0.85 and 1.36 and 1.38 and 0.99 and 1.41 and 1.28 | LDH ([1]; HCD, vehicle/MI-883 (sex not given)): 1.12 and 1.15 and 1.19 and 1.1 and 1.09 | BW (Fig. 4g) [1, 4]: 26.3 and 24.9 and 24.8 and 24.3 and 24 and 23.2 | Chol (Fig. 4h) [1, 4]: 3.83 and 3.39 and 3.78 and 3.72 and 3.46 and 3.54 and 3.66 | Glu (Fig. 4h) [1, 4]: 13.29 and 13.05 and 14.81 and 13.6 and 14.89 and 13.61 and 13.46 | HDL (Fig. 4h) [1, 4]: 2.476 and 2.431 and 2.259 and 2.337 and 2.161 and 2.202 and 2.297 | LDL (Fig. 4h) [1, 4]: 1.12 and 1.15 and 1.19 and 1.1 and 1.09 | LW (Fig. 4g) [1, 4]: 1.78 and 1.62 and 1.65 and 1.52 and 1.64 and 1.48 | LW/BW (Fig. 4g) [1, 4]: 6.77 and 6.51 and 6.65 and 6.255 and 6.833 and 6.379 | TG (Fig. 4h) [1, 4]: 1.189 and 1.059 and 1.137 and 1.521 and 2.113 and 1.22 and 1.433 | triglyceride levels in females ([1]; second study (HCD), at the level of statistical significance): some increase | BW (Fig. 4g) [1, 5]: 30 and 29.4 and 30.6 and 30.9 and 33.4 and 29.7 and 26.5 and 28.4 and 26.8 | Chol (Fig. 4h) [1, 5]: 5.16 and 3.99 and 5.8 and 3.44 and 4.89 and 4.88 and 4.18 and 4.72 | Glu (Fig. 4h) [1, 5]: 13.25 and 13.05 and 16.4 and 12.86 and 18.52 and 15.35 and 11.72 and 18.14 and 17.74 | HDL (Fig. 4h) [1, 5]: 3.01 and 2.484 and 3.335 and 2.267 and 3.073 and 3.039 and 2.781 and 3.388 and 2.988 | LDL (Fig. 4h) [1, 5]: 1.47 and 1.15 and 1.63 and 0.85 and 1.36 and 1.38 and 0.99 and 1.41 and 1.28 | LW (Fig. 4g) [1, 5]: 1.63 and 1.97 and 2.03 and 1.53 and 2.51 and 2.11 and 1.85 and 1.32 and 1.94 | LW/BW (Fig. 4g) [1, 5]: 5.43 and 6.7 and 6.63 and 4.95 and 7.51 and 7.1 and 6.98 and 4.65 and 7.24 | TG (Fig. 4h) [1, 5]: 0.993 and 0.808 and 0.849 and 0.608 and 0.516 and 0.697 and 0.709 and 0.93 and 0.706 | liver Apoc1, Apoc4, Apoa5, Apoa1, RNA-Seq ([2]; HFD study): marginally but significantly downregulated | liver Scarb1, Angptl3, Lipc, RNA-Seq ([2]; HFD study): marginally, but significantly, downregulated | liver genes of fatty acid metabolism (Scd1, Fabp2, Srebf1), RNA-Seq ([2]; HFD study): significantly downregulated | liver transporters Abcb1, Bsep, Abcg5/8 ([2]; HFD study): not been significantly affected | liver Hmgcr mRNA upregulation ([2]; HFD study (Fig. 6e)): 1.31 fold and 1.3 fold | liver Scd1 mRNA, log2FC_DESeq ([2]; HFD study, n=5, FDR_DESeq 0.0023): -0.4854 log2FC | liver Cyp2c70, log2FC ([2]; HFD study, 0.008 FDR_DESeq): –0.58 log2FC | RT-qPCR in LS174T (Fig 1 l, CYP3A4 mRNA), replicates ([3]; Rif 1μM + MI-883 1μM): 2.91 and 2.35 and 2.61 | RT-qPCR in LS174T (Fig 1 l, CYP3A4 mRNA), replicates ([3]; Rif 1μM + test compound 10μM): 0.86 and 1.1 and 0.8 | RT-qPCR in LS174T (Fig 1 l, CYP3A4 mRNA), replicates ([3]; Rif 10μM + MI-883 1μM): 10.4 and 6.9 and 8.3 | RT-qPCR in LS174T (Fig 1 l, CYP3A4 mRNA), replicates ([3]; Rif 10μM + MI-883 10μM): 3.35 and 2.8 and 2.2 | RT-qPCR in LS174T (Fig 1 l, CYP3A4 mRNA), replicates ([3]; SR12813 1μM + MI-883 1μM): 0.55 and 0.68 and 0.64 | RT-qPCR in LS174T (Fig 1 l, CYP3A4 mRNA), replicates ([3]; SR12813 1μM + test compound 10μM): 0.77 and 0.59 and 0.57 | RT-qPCR in LS174T (Fig 1 l, CYP3A4 mRNA), replicates ([3]; single agent 1μM, ctrl = 1): 0.45 and 0.96 and 0.51 | RT-qPCR in LS174T (Fig 1 l, CYP3A4 mRNA), replicates ([3]; single agent 10μM): 0.59 and 0.57 and 0.55 | NRs assays: mCar (relative to ctrl, replicates) (mouse Car): 1.15 and 1.36 and 1.11
